US20140228418A1, “COMBINATION THERAPY OF HSP90 INHIBITORY COMPOUNDS WITH MEK INHIBITORS” (Synta Pharmaceuticals Corp., priority 2011, published 2014)

Columns and labels:
Type in all cases: cell-based, Human
[1] = test system: A375 melanoma cells (BRAFV600E mutant); assay: Cell viability (Cell Titer-Glo) in A375 melanoma cells, single agents and matrix combination; conditions: for cells killed / concentration that killed 100% of the cells: 72 hr; for cells killed: FIG. 3; for concentration that killed 100% of the cells: FIG. 2; for IC50: Homo sapiens, A-375, 72 hr, FIG. 2, read-out: concentration that killed 50% of the cells
Method: (§1) Human H1666 NSCLC (BRAFG466V mutant) and A375 melanoma cells (BRAFV600E mutant) were purchased from the American Type Culture Collection (Manassas, Va.) and grown in RPMI or DMEM, respectively, in the presence of fetal bovine serum (10%), 2 mM L-glutamine and antibiotics (100 IU/ml penicillin and 100 μg/ml streptomycin) purchased from Sigma Aldrich. Cells were maintained at 37° C., 5% CO2 atmosphere.
(§2) Cell viability was measured using the Cell Titer-Glo assay (Promega). In brief, cells were plated in 96-well plates in triplicate at optimal seeding density (determined empirically for each cell line) and incubated at 37° C., 5% CO2 atmosphere for 24 hr prior to the addition of drug or vehicle (0.3% DMSO) to the culture medium. At the end of the assay, Cell Titer-Glow was added to the wells per manufactures recommendation, shaken for two minutes and incubated for 10 minutes at room temperature. Luminescence (0.1 sec) was measured with a Victor II microplate reader (Perkin Elmer) and the resulting data were used to calculate cell viability, normalized to vehicle control.
Matrix style combinations between AZD6244 and Ganetespib were performed in A375 melanoma cells. Cells were exposed to AZD6244, ganetespib or the combination of the two concurrently for 72 hr and viability was assessed.
Combination Index (CI) was then determined using the median effect analysis software CalcuSyn 2.0 (CalcuSyn, Inc.). A Combination Index greater than one, equal to one or less than one indicates antagonism, additivity and synergism, respectively.

ERK = assay: Western blotting of MAPK pathway analytes in A375 cells treated for 24 hr; conditions: A375 melanoma cells with constitutively activated MAPK, FIG. 1
Method: as §1
Cells, treated with compound for 24 hr, were lysed in RIPA buffer (CST, Danvers, Mass., USA) on ice and clarified by centrifugation. Equal amounts of proteins were resolved by SDS-PAGE and immunoblotted with indicated antibodies. The antigen-antibody complex was visualized and quantitated using an Odyssey system (LI-COR, Lincoln, Nebr., USA).
The mitogen-activated protein kinase (MAPK) signal transduction cascade is dysregulated in a majority of human tumors.

[2] = test system: H1666 NSCLC (BRAFG466V mutant); assay: Cell viability (Cell Titer-Glo) in H1666 NSCLC cells, single agents and combination; conditions: FIG. 5
Method: as §1, §2
The combination of ganetespib and AZD6244 was performed in the NSCLC cell line H1666. Similar to A375 cells, the combination of both compounds yielded greater anticancer activity than monotherapy. […]

For Cn1cnc2c(F)c(Nc3ccc(Br)cc3Cl)c(C(=O)NOCCO)cc21 [AZD6244, 6-(4-bromo-2-chloro-phenylamino)-7-fluoro-3-methyl-3H-benzoimidazole-5-carboxylic acid (2-hydroxy-ethoxy)-amide], the cells killed ([1]; AZD6244 24 nM alone) was 10%, the “concentration that killed 100% of the cells” value [1] was 228 nM and the IC50 [1] was 0.065 µM. The “disruption of activation of the MEK substrate ERK / abrogation of ERK activity (western blot)” value (ERK) was “highly effective” and the cells killed ([2]; AZD6244 118 nM alone) was “approximately 50%”.
In the case of CC(C)c1cc(-c2nnc(O)n2-c2ccc3c(ccn3C)c2)c(O)cc1O [ganetespib, 3-(2,4-dihydroxy-5-isopropyl-phenyl)-4-(1-methyl-indol-5-yl)-5-hydroxy-[1,2,4] triazole], the “concentration that killed 100% of the cells” value [1] is reported as 35 nM, the cells killed ([1]; ganetespib 30 nM alone) is reported as 20% and the IC50 [1] is reported as 0.015 µM. For the same compound, the “disruption of activation of the MEK substrate ERK / abrogation of ERK activity (western blot)” value (ERK) was “highly effective” and the cells killed ([2]; ganetespib 68 nM alone) was “approximately 50%”.
